Measurements taken from US4316884A, “Sustained release pharmaceutical formulation” (Adria Laboratories, Inc., priority 1980, dated 1982).
Entries after “also recorded” stand apart in the source; their conditions may differ.

Legend:
[1] = in vivo; cited from earlier work
[2] = humans; cited from earlier work
[3] = plasma levels of indoprofen in mice after oral gavage (HPLC-UV); type: in vivo
Procedure: Plasma levels of indoprofen are determined in adult mice (22-25 g.) following oral gavage of either pure drug or microencapsulated drug. Drugs are administered at 1% of the body weight. Each treatment group in a single experiment contains four animals and the data is pooled for evaluation. Animals are sacrificed by decapitation. Blood from each treatment group is collected and pooled in heparinized tubes. Plasma is collected and frozen for assay of indoprofen concentration. Plasma indoprofen concentration is determined by high pressure liquid chromatography fitted with a UV detector; concentration is determined at max. 284 nm.
Plasma Level (μg/ml) of Indoprofen in Mice,
Administered Orally as a Suspension*
*Aqueous suspension containing 0.5% methylcellulose and 0.06% surface
^a The apparent rate of elimination, Ke is calculated using a on
compartment open model system as described by J. G. Wagner
Biopharmaceutics and Relevant Pharmacokinetics, page 180, Hamilton Press

[4] = acidic pH of the stomach, unionized; cited from earlier work
[5] = human, in vivo
[6] = clinical analgesic/anti-inflammatory efficacy and side effects in man; type: in vivo
Procedure: The analgesic dose for indoprofen in man is low in comparison to the anti-inflammatory dose, i.e., in the order of 100 to 600 mg. per day.
However, the dose necessary for indoprofen to exert an anti-inflammatory activity is higher than the analgesic dose, i.e., in the order of 800 to 1200 mg. per day. […] At this dose gastrointestinal ulceration and other side effects are […].

- half-life ([3]; mouse, plasma, oral suspension): 5.4 h
- concentration at 2 h ([3]; mouse, plasma, oral suspension, 2 hours, mean and standard error, read-out: Plasma Level of Indoprofen): 2490 ± 450 ng/mL
- concentration at 4 h ([3]; mouse, plasma, oral suspension, 4 hours, mean and standard error, read-out: Plasma Level of Indoprofen): 1620 ± 150 ng/mL
- concentration at 8 h ([3]; mouse, plasma, oral suspension, 8 hours, mean and standard error, read-out: Plasma Level of Indoprofen): 890 ± 240 ng/mL
- concentration at 16 h ([3]; mouse, plasma, oral suspension, 16 hours, mean and standard error, read-out: Plasma Level of Indoprofen): 490 ± 170 ng/mL
- concentration at 32 h ([3]; mouse, plasma, oral suspension, 32 hours, mean and standard error, read-out: Plasma Level of Indoprofen): 430 ng/mL
- k el ([3]; mouse, plasma, oral suspension, one compartment open model, read-out: Ke, apparent rate of elimination (converted)): 3.54e-05 s⁻¹
- plasma peak height and bioavailability (total area under the plasma curve) as dose is increased [5]: increases in a linear fashion
SMILES: CC(C(=O)O)c1ccc(N2Cc3ccccc3C2=O)cc1 (stereo not drawn) [indoprofen, alpha-[4-(1-oxo-2-isoindolinyl)-phenyl]propionic acid]
- anti-inflammatory and analgesic properties [1]: excellent anti-inflammatory and analgesic properties
- plasma half-life (t 1/2) [2]: 2.1 to 5.4 h
- AUC ([3]; mouse, plasma, oral, 1% of the body weight, read-out: area under the plasma curve): 24500 ng·h/mL
- Cmax ([3]; mouse, plasma, oral, 1% of the body weight, read-out: plasma peak height): 2500 ng/mL
- bioavailability, pure drug versus microencapsulated form ([3]; oral): bioequivalent; also recorded: equivalent bioavailability
- plasma peak height, pure drug relative to microencapsulated drug ([3]; oral, listed as pure drug): two times that of microencapsulated form; also recorded: two times that of the microencapsulated drug
- solubility [4]: poorly soluble
- safety in prolonged therapy ([6]; clinical studies, above 800 mg., especially 1200 mg., per day): has not been shown to be safe for prolonged therapy
- safety classification ([6]; clinical studies, up to 800 mg. per day): safe dose
- effectiveness in osteoarthritis ([6]; man, 800 mg. per day): effective in the treatment of osteoarthritis
- gastrointestinal ulceration and other side effects ([6]; man, 800 mg. per day): minimal
- effectiveness in rheumatoid arthritis ([6]; man, 1200 mg. per day): effective in the treatment of rheumatoid arthritis
- gastrointestinal ulceration and other side effects ([6]; man, 1200 mg. per day): the incidence of gastrointestinal ulceration and other side effects are recognized
- analgesic effect ([6]; man, 100 to 600 mg. per day): maximum analgesic effect
- side effects ([6]; man, 100 to 600 mg. per day): minimal or negligible side effects
